The supplement of paper PMC10307832

Assays:
Test in all cases: relative viability (nuclei count vs DMSO), 5 days (fraction); higher = more cells survive
[1] = compound: C1=CC=C2C(=C1)N=C(S2)C(C#N)C3=NC(=NC=C3)NCCC4=CN=CC=C4 + COc1cc2c(Oc3ccc(NC(=O)C4(C(=O)Nc5ccc(F)cc5)CC4)cc3F)ccnc2cc1OCCCN1CCOCC1 [Foretinib] (partner 0.25 µM)
In short: (§1)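 Lung cancer cell lines in 1536-well plates got either a single drug or a fixed anchor-drug dose together with five library-drug doses (not always all listed) in √10 steps, by pin tool, on the day after seeding. Nuclei were counted after 5 days, and relative viability is the treated-to-vehicle ratio of nuclei counts. Values are medians of duplicate plates.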

Vandetanib + AZD7762 = compound: COc1cc2/c(=N/c3ccc(Br)cc3F)nc[nH]c2cc1OCC1CCN(C)CC1 [Vandetanib] + NC(=O)Nc1cc(-c2cccc(F)c2)sc1C(=O)N[C@H]1CCCNC1 [AZD7762] (partner 0.2 µM)
In short: as §1

Vandetanib + Luminespib = compound: COc1cc2/c(=N/c3ccc(Br)cc3F)nc[nH]c2cc1OCC1CCN(C)CC1 [Vandetanib] + CCNC(=O)c1noc(-c2cc(C(C)C)c(O)cc2O)c1-c1ccc(CN2CCOCC2)cc1 [Luminespib] (partner 0.01 µM)
In short: as §1

Vandetanib + Trametinib = compound: COc1cc2/c(=N/c3ccc(Br)cc3F)nc[nH]c2cc1OCC1CCN(C)CC1 [Vandetanib] + CC(=O)Nc1cccc(-n2c(=O)n(C3CC3)c(=O)c3c(Nc4ccc(I)cc4F)n(C)c(=O)c(C)c32)c1 [Trametinib] (partner 0.02 µM)
In short: as §1

Cell Line | relative viability ([1]; first compound 0.005 µM) | relative viability ([1]; first compound 0.01581 µM) | relative viability ([1]; first compound 0.05 µM) | relative viability ([1]; first compound 0.1581 µM) | relative viability ([1]; first compound 0.5 µM) | relative viability (Vandetanib + AZD7762; first compound 0.02 µM) | relative viability (Vandetanib + AZD7762; first compound 0.06325 µM) | relative viability (Vandetanib + AZD7762; first compound 0.2 µM) | relative viability (Vandetanib + AZD7762; first compound 0.6325 µM) | relative viability (Vandetanib + AZD7762; first compound 2 µM) | relative viability (Vandetanib + Luminespib; first compound 0.02 µM) | relative viability (Vandetanib + Luminespib; first compound 0.06325 µM) | relative viability (Vandetanib + Luminespib; first compound 0.2 µM) | relative viability (Vandetanib + Luminespib; first compound 0.6325 µM) | relative viability (Vandetanib + Luminespib; first compound 2 µM) | relative viability (Vandetanib + Trametinib; first compound 0.02 µM) | relative viability (Vandetanib + Trametinib; first compound 0.06325 µM) | relative viability (Vandetanib + Trametinib; first compound 0.2 µM) | relative viability (Vandetanib + Trametinib; first compound 0.6325 µM) | relative viability (Vandetanib + Trametinib; first compound 2 µM)
NCI-H1355 | 0.929 | 1.06 | 0.96 | 1.08 | 0.923 | 0.741 | 0.742 | 0.755 | 0.66 | 0.653 | 0.618 | 0.731 | 0.838 | 0.685 | 0.698 | 0.412 | 0.426 | 0.438 | 0.465 | 0.402
NCI-H1395 | 0.868 | 0.912 | 1.05 | 0.996 | 0.967 | 0.404 | 0.399 | 0.427 | 0.418 | 0.434 | 0.715 | 0.539 | 0.729 | 0.6 | 0.879 | 1.06 | 1.01 | 0.956 | 1.13 | 1.05
NCI-H1437 | 1.26 | 1.3 | 1.27 | 1.32 | 1.23 | 1.16 | 1.12 | 1.1 | 1.2 | 1.09 | 1.12 | 1.09 | 0.255 | 1.21 | 1.06 | 0.592 | 0.466 | 0.557 | 0.432 | 0.517
NCI-H1651 | 0.687 | 0.872 | 0.774 | 0.801 | 0.757 | 0.431 | 0.425 | 0.462 | 0.442 | 0.486 | 1.09 | 1.01 | 0.171 | 0.901 | 0.641 | 0.822 | 0.818 | 0.83 | 0.876 | 0.727
NCI-H1666 | 0.897 | 0.951 | 0.971 | 0.981 | 0.838 | 0.83 | 0.772 | 0.734 | 0.814 | 0.722 | 1.05 | 0.981 | 0.405 | 0.949 | 0.823 | 0.844 | 0.817 | 0.879 | 0.764 | 0.815
NCI-H1734 |  | 0.8 | 0.913 | 0.993 | 0.758 | 0.554 | 0.511 | 0.557 | 0.517 | 0.545 | 0.205 | 0.204 | 0.135 | 0.187 | 0.229 | 0.639 | 0.694 | 0.667 | 0.673 | 0.709
NCI-H1755 | 0.915 | 0.991 | 0.945 | 0.936 | 0.939 | 0.455 | 0.436 | 0.42 | 0.437 | 0.503 | 0.396 | 0.43 | 0.409 | 0.783 | 0.353 | 0.749 | 0.731 | 0.794 | 0.749 | 0.751
NCI-H1793 | 0.714 | 0.71 | 0.58 | 0.775 | 0.679 | 0.514 | 0.409 | 0.331 | 0.286 | 0.397 | 0.189 | 0.14 | 0.159 | 0.209 | 0.166 | 0.479 | 0.362 | 0.47 | 0.418 | 0.408
NCI-H1915 | 1.08 | 1.11 | 1.1 | 1.3 | 1.05 | 0.696 | 0.664 | 0.693 | 0.612 | 0.719 | 0.744 | 0.808 | 0.766 | 0.766 | 0.733 | 0.29 | 0.291 | 0.29 | 0.329 | 0.292
NCI-H1944 | 0.875 | 0.91 | 0.853 | 0.929 | 0.885 | 0.489 | 0.611 | 0.555 | 0.462 | 0.471 | 0.811 | 0.743 | 0.745 | 0.676 | 0.651 | 0.456 | 0.427 | 0.425 | 0.402 | 0.369
NCI-H1975 | 0.779 | 0.897 | 0.846 | 1.08 | 0.73 | 0.701 | 0.663 | 0.645 | 0.687 | 0.617 | 0.347 | 0.27 | 0.224 | 0.173 | 0.236 | 0.356 | 0.344 | 0.378 | 0.35 | 0.365
NCI-H1993 | 0.803 | 0.768 | 0.723 | 0.783 | 0.665 | 0.737 | 0.74 | 0.861 | 0.78 | 0.555 | 0.951 | 0.785 | 0.538 | 0.838 | 0.721 | 0.568 | 0.552 | 0.499 | 0.545 | 0.494
NCI-H2085 | 0.891 | 0.811 | 0.888 | 1.03 | 0.979 | 0.941 | 0.944 | 0.951 | 0.857 | 0.946 | 0.451 | 0.384 | 0.269 | 0.478 | 0.398 | 0.549 | 0.499 | 0.5 | 0.593 | 0.484
NCI-H2087 | 1.08 | 1.14 | 1.1 | 1.12 | 0.969 | 1.38 | 1.23 | 1.54 | 1.4 | 1.49 | 0.183 | 0.197 | 0.132 | 0.179 | 0.255 | 0.211 | 0.221 | 0.23 | 0.213 | 0.2
NCI-H2126 | 1.14 | 1.2 | 1.22 | 1.19 | 1.34 | 1.03 | 0.938 | 1.01 | 0.971 | 1 | 0.882 | 0.855 | 0.888 | 0.914 | 0.687 | 0.58 | 0.546 | 0.556 | 0.502 | 0.504
NCI-H2170 | 0.731 | 1.03 | 0.961 | 1.04 | 0.861 | 0.822 | 0.8 | 0.893 | 0.781 | 0.835 | 0.715 | 0.606 | 0.689 | 0.616 | 0.823 | 0.905 | 0.875 | 0.931 | 0.896 | 0.858
NCI-H2342 | 0.926 | 1.17 | 0.997 | 1.04 | 1.17 | 0.483 | 0.479 | 0.707 | 0.537 | 0.365 | 0.757 | 0.71 | 0.716 | 0.754 | 0.651 | 0.823 | 0.826 | 0.869 | 0.851 | 0.809
NCI-H2347 | 1.1 | 0.821 |  | 0.662 | 1.17 | 0.764 | 0.657 | 0.788 | 0.778 | 0.689 | 0.594 |  | 0.333 | 0.642 | 0.574 | 0.28 | 0.278 | 0.254 | 0.283 | 0.28
NCI-H2405 | 1.02 | 1.04 | 1.04 | 1.07 | 1 | 0.703 | 0.651 | 0.674 | 0.698 | 0.571 | 0.736 | 0.539 | 0.776 | 0.642 | 0.55 | 0.63 | 0.458 | 0.714 | 0.653 | 0.616
NCI-H3122 | 0.839 | 0.87 | 0.917 | 1.05 | 0.969 | 0.917 | 1 | 1.01 | 0.926 | 1.01 | 0.0842 | 0.111 | 0.0787 | 0.0959 | 0.0934 | 0.208 | 0.186 | 0.113 | 0.259 | 0.204
PC-3 [JPC-3] | 0.984 | 1.12 | 1.07 | 1.14 | 0.961 | 0.766 | 0.729 | 0.591 | 0.512 | 0.419 | 0.724 | 0.661 | 0.639 | 0.745 | 0.524 | 0.682 | 0.577 | 0.584 | 0.513 | 0.435
PC-14 | 0.899 | 1.05 | 0.917 | 1.08 | 0.819 | 0.361 | 0.282 | 0.25 | 0.164 | 0.13 | 0.234 | 0.152 | 0.184 | 0.13 | 0.131 | 0.725 | 0.51 | 0.071 | 0.109 | 0.0866
RERF-LC-KJ | 0.966 | 0.826 | 0.86 | 0.882 | 0.762 |  | 0.985 | 1.06 | 1.04 | 0.766 | 1.1 | 1.21 | 1.29 | 1.14 | 1.12 | 0.808 | 0.933 | 0.528 | 0.831 | 0.688
SW 900 | 0.63 | 0.714 | 0.704 | 1.02 | 0.985 | 0.6 | 0.607 |  | 0.598 | 0.688 | 0.19 | 0.17 | 0.195 | 0.204 | 0.175 | 0.654 | 0.71 |  | 0.673 | 0.549
